Source: patent US20250122465A1 (priority 2023, published 2025)
Like-named read-outs stand apart in the source and are kept apart here.

Legend:
STRAIN-1 = test: Spore activation rate by phase-contrast microscopy, STRAIN-1; format: cell-based, Bacillus
[1] = system: Clostridium perfringens type A and G strains; conditions: combined with taurocholate; cited from earlier work
[2] = Example 1, individual amino acid at its Table 1 amount (0.08-500 g/L), 42° C., 1 hour
[3] = Example 1, individual amino acid at its Table 1 amount (0.08-500 g/L), 42° C., 24 hours

Structure (SMILES) | Activation Rate (%) at 1 hr. (STRAIN-1; [2]) [%] | Activation Rate (%) at 24 hrs. (STRAIN-1; [3]) | further results
N[C@@H](CO)C(=O)O [L-Serine] | 0 | 0% | 
C[C@@H](O)[C@H](N)C(=O)O [L-Threonine] | 0 | 0% | 
CC(C)C[C@H](N)C(=O)O [L-Leucine] | 0 | 0% | Activation Rate (%) at 24 hrs. (STRAIN-1): zero
N[C@@H](CS)C(=O)O [L-Cysteine] | 0 | 0% | 
N[C@@H](Cc1ccccc1)C(=O)O [L-Phenylalanine] | 0 | 0% | 
N[C@@H](Cc1c[nH]c2ccccc12)C(=O)O [L-Tryptophan] | 0 | 0% | 
N[C@@H](CC(=O)O)C(=O)O [L-Aspartic acid] | 0 | 0% | 
CC(C)[C@H](N)C(=O)O [L-Valine] | 0 | 95 +/− 0% | Activation Rate (%) at 1 hr. (STRAIN-1): did not result in any activation; Activation Rate (%) at 24 hrs. (STRAIN-1; Example 1, individual amino acid at its Table 1 amount (0.08-500 g/L), 42° C., 24 hours, listed as L-valine): 95%
N[C@@H](CSSC[C@H](N)C(=O)O)C(=O)O [L-Cystine] | 0 | 0% | 
N[C@@H](CCC(=O)O)C(=O)O [L-Glutamic acid] | 0 | 0% | 
N[C@@H](Cc1ccc(O)cc1)C(=O)O [L-Tyrosine] | 0 | 0% | 
N[C@@H](Cc1c[nH]cn1)C(=O)O [L-Histidine] | 0 | 0% | 
OC[C@H]1O[C@@H](n2cnc3c(O)ncnc32)[C@H](O)[C@@H]1O [Inosine] | 0 | 0% | 
C[C@H](N)C(=O)O [L-alanine] |  |  | spore germination induced [1]: approximately 50%
NC(=O)CC[C@H](N)C(=O)O [L-Glutamine] | 0 | 0% | 
O=C(O)[C@@H]1CCCN1 [L-Proline] | 0 | 0% | 
CC[C@H](C)[C@H](N)C(=O)O [L-Isoleucine] |  | 99 +/− 0% | Activation Rate (%) at 24 hrs. (STRAIN-1; Example 1, individual amino acid at its Table 1 amount (0.08-500 g/L), 42° C., 24 hours, listed as L-isoleucine): 99%
NCC(=O)O [Glycine] | 0 | 0% | 
C[N+](C)(C)C[C@H](O)CC(=O)[O-] [L Carnitine] |  |  | Activation Rate (%) at 1 hr. (STRAIN-1): 0%; Activation Rate (%) at 24 hrs. (STRAIN-1): 0%
CSCC[C@H](N)C(=O)O [L-Methionine] | 0 | 0% | 
N=C(N)NCCC[C@H](N)C(=O)O [L-Arginine] | 0 | 0% | 
NCCCC[C@H](N)C(=O)O [L-Lysine] |  |  | Activation Rate (%) at 1 hr. (STRAIN-1): 0%; Activation Rate (%) at 24 hrs. (STRAIN-1): 0%
